Here are results for 71 compounds from PubChem BioAssay AID849 (SRMLSC, 2007).

As usually defined, the IC50 is the concentration that gives 50% inhibition.

Structures are written as SMILES. Calls of active or inactive are those of the source. No rule for the calls is given here. Where only a bound is given, the exact number is not on record here.

This experiment relates to Saccharomyces cerevisiae lifespan shortening, growth inhibition. The experiment is described as follows: Saccharomyces cerevisiae growth inhibition potency – dose response (AID 849).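 Also: yeast growth read as optical density after two days at 30 degrees C.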

As to `c1ccc(Cc2nnc3sc(-c4ccc5c(c4)OCCO5)nn23)cc1`, the IC50 is > 100 µM (inactive). The value for `COC(=O)Cc1cc(=O)n(-c2nc3ccccc3[nH]2)[nH]1` was 21.7 µM; that for `COc1ccc(/C=C2/C(=O)ON=C2c2ccccc2)cc1OC` was 33.3 µM; that for `CCCCCCCCCCCCCCCC[n+]1cccc2ccccc21` was 0.783 µM. The value for `Cc1ccccc1C(=O)O/N=C/c1c(N2CCOCC2)n(C)c2ccccc12` was 49.9 µM; that for `CC(=O)Oc1ccc(N2C(=O)C3C(C2=O)C2(C)C=CC3(C)O2)cc1` (stereo unspecified) was > 100 µM (inactive). As for `CN(C)CCNC=C(C(=O)Nc1ccc(Cl)cc1Cl)C(=O)Nc1ccc(Cl)cc1Cl`, the 50% inhibitory concentration (IC50) was 23.9 µM. As for `CCCCN(CCCC)C(=S)N/N=C/c1c(C)[nH]n(-c2ccccc2)c1=O`, the figure is 38.9 µM. As for `COc1ccc2[nH]c3c(Cl)ncnc3c2c1`, the figure is 18.5 µM. The value for `C=CCN1C(C(=O)c2ccccc2)=C(OC(=O)COc2ccccc2)c2ccccc2S1(=O)=O` was 26.9 µM. Turning to `Cc1cccc(Nc2nc(-c3ccccn3)cs2)n1`, the IC50 is 20.3 µM.

Regarding `O=[N+]([O-])c1ccc(N/N=C/c2ccc[nH]2)cc1`, the IC50 was > 100 µM (inactive). Turning to `COc1ccc(-c2nnc3sc(C(C)N4C(=O)c5ccccc5C4=O)nn23)cc1` (stereo unspecified), the IC50 is > 100 µM (inactive). The value for `COc1ccccc1N1CCN(Cc2cc(Br)c(O)c3ncccc23)CC1` was 15.8 µM; that for `Cc1ccc(C(NC(=O)C(C)C)c2cc([N+](=O)[O-])c3cccnc3c2O)cc1` (stereo unspecified) was 11.4 µM. The value for `N#Cc1ccccc1NC(=O)c1ccc2c(Cl)c3c(nc2c1)CCCC3` was > 100 µM (inactive); that for `CCN1/C(=C(\O)c2ccccc2)C(=O)c2ccccc2S1(=O)=O` was > 100 µM (inactive).

As for `Cc1cc(=O)[nH]c(SCc2nc3ccccc3s2)n1`, the IC50 was > 100 µM (inactive). As for `O=C1C(=C2CCCCC2)SC(=S)N1Cc1ccco1`, the figure is > 100 µM (inactive).

For the compound `Cc1cccc(OCCN2CSC(=S)N(C)C2)c1`, the half-inhibitory concentration (IC50) is 13 µM.

Regarding `CC1=C/C(=N\OS(=O)(=O)c2ccccc2)C(C)=CC1=O`, the half-inhibitory concentration (IC50) is 1.54 µM. As for `c1ccc(-n2c(-c3ccco3)nnc2-c2ccco2)cc1`, the figure is > 100 µM (inactive); as for `O=C1CSC(=S)N1c1cccnc1`, 31.9 µM; as for `COC(=O)Cn1c2ccccc2c2nc(C)sc21`, > 100 µM (inactive). As for `FC(F)Sc1ccc(Nc2ncnc3nc[nH]c23)cc1`, the figure is > 100 µM (inactive); as for `S=C(NCC1CCCCC1)Nc1ccc(Oc2ccccc2)cc1`, > 100 µM (inactive); as for `O=C1C2C3C=CC(CO)(O3)C2C(=O)N1c1ccccc1-c1ccccc1` (stereo unspecified), > 100 µM (inactive). As for `COc1ccc(Br)cc1C1CC(=O)N2CN(C)CSC2=C1C#N` (stereo unspecified), the figure is > 100 µM (inactive). In the case of `CCc1ccc(/C=C/C(=O)c2cc(Br)ccc(=O)c2O)cc1`, the IC50 is 9.89 µM. As for `N/C(Cc1ccc(Cl)cc1)=N\OC(=O)c1ccccc1`, the figure is 27.1 µM; as for `Oc1c(Cl)cc(Cl)cc1Sc1cc(Cl)cc(Cl)c1O`, 25.4 µM. Turning to `N#CSCC(=O)c1cccc2ccccc12`, the IC50 was 8.65 µM. With `O=[N+]([O-])c1ccc(N=Nc2ccc(O)cc2O)cc1`, the IC50 was 32 µM. Consider `c1ccc2c(c1)oc1c(N3CCOCC3)ncnc12`, for which the IC50 is 32.1 µM. The value for `CCCCc1ccc(NS(=O)(=O)c2cccs2)cc1` was 35.3 µM; that for `Cc1cccnc1Nc1nc(-c2ccccn2)cs1` was 45.7 µM. The value for `CC(Nc1ccc(Br)cn1)c1cc(Cl)ccc1O` (stereo unspecified) was > 100 µM (inactive); that for `CC(NC(=O)/C(C#N)=C/c1ccc(Cl)c([N+](=O)[O-])c1)c1ccccc1` (stereo unspecified) was > 100 µM (inactive). For the compound `COc1ccccc1-n1c(=O)oc2ccc(Cl)cc2c1=O`, the IC50 was > 100 µM (inactive). As for `O=c1cc(C(F)(F)F)[nH]c2c(C(F)(F)F)cccc12`, the figure is 9.03 µM; as for `CCS(=O)(=O)n1nc(-c2ccc(Cl)cc2)nc1SCc1ccccc1`, > 100 µM (inactive). Turning to `CC1=NNC(=O)/C1=C\c1cn(-c2ccccc2)nc1-c1cccs1`, the concentration for half-maximal inhibition (IC50) was 36.1 µM.

For `O=C1CCN2C=Nc3cccc4ccc1c2c34`, the IC50 is 32.9 µM.

`O=C(Oc1c(Cl)cc(Cl)c2cccnc12)c1cccc([N+](=O)[O-])c1`: the IC50 was 2.95 µM.

On to `CCn1c(=O)c(C(=O)Nc2nc3ccccc3[nH]2)c(O)c2ccccc21`, for which the IC50 was > 100 µM (inactive). In the case of `Cc1cc2c(cc(C(=O)O)n2C)s1`, the 50% inhibitory concentration (IC50) was 36.5 µM. Consider `COc1ccc(NCc2nc3ccccc3n2CCOc2ccc(C)cc2)cc1`, for which the concentration for half-maximal inhibition (IC50) is 31.2 µM. As for `COc1ccc(-n2c(Cc3cccn3C)nnc2SCC(=O)N2CCCC2)cc1`, the figure is > 100 µM (inactive); as for `O=C(Cc1ccccc1)NCCc1cn2ccsc2n1`, > 100 µM (inactive). On to `Cc1ccc(NC(=O)CSC2=C(C#N)C(c3ccc4c(c3)OCO4)C3=C(CCCC3=O)N2)c(C)c1` (stereo unspecified), for which the IC50 was > 100 µM (inactive).

With `COc1ccccc1C(=O)NNC(=S)NC(=O)c1ccco1`, the IC50 was > 100 µM (inactive). The value for `O=[N+]([O-])c1cc(Cc2ccccc2)cc(C=Nc2ccc(N3CCOCC3)cc2)c1O` was > 100 µM (inactive); that for `COc1ccccc1N1CCN(C(CNC(=O)c2ccco2)c2cccnc2)CC1` (stereo unspecified) was > 100 µM (inactive). Take `C(=C\c1nc(N2CCCCCC2)c2ccccc2n1)/c1ccccc1`: the 50% inhibitory concentration (IC50) was 42.1 µM. The value for `C=CCn1cnc2c(c1=O)c1nc3ccccc3nc1n2/N=C/c1cc(OC)c(OC)c(OC)c1` was 37.4 µM; that for `CCOc1ccc(/C=C/[N+](=O)[O-])c2ccccc12` was > 100 µM (inactive); that for `Cc1cccc(C(=O)NC(=S)NNC(=O)c2cccs2)c1` was 30.6 µM. As for `Cc1ccc(/C(N)=N/OC(=O)c2ccc(Cl)cc2Cl)cc1`, the figure is 18.3 µM. As to `O=c1c2sc(-c3ccccc3)cc2nc2n1CCC2`, the IC50 was 13.8 µM. The value for `O=C(c1c[nH]c(C(=O)C(Cl)(Cl)Cl)c1)c1ccccc1Cl` was > 100 µM (inactive); that for `O=[N+]([O-])c1ccccc1-c1cc(-c2cc(Cl)ccc2O)n[nH]1` was > 100 µM (inactive); that for `COc1ccc(S(=O)(=O)n2oc(=O)cc2-c2ccccc2)cc1OC` was > 100 µM (inactive). As for `Cc1ccc(/C=C/C(=O)c2ccccc(=O)c2O)cc1C`, the figure is 5.31 µM; as for `O=[N+]([O-])c1ccc(Cl)c(S(=O)(=O)N2CCCCCC2)c1`, 37.4 µM; as for `COc1ccc(-c2nncnn2)cc1`, 10 µM. The value for `CC1CCCC2(C1)NC(=S)c1c(sc3c1CCCC3)N2` (stereo unspecified) was > 100 µM (inactive). Take `CC(C)C(=O)NC(c1ccccc1)c1cc([N+](=O)[O-])c2cccnc2c1O` (stereo unspecified): the IC50 was 14.2 µM. As for `O=C1c2ccccc2C(=O)c2c1cccc2N1CCOCC1`, the figure is 46.6 µM; as for `Oc1c(Br)cc(Br)cc1Oc1ccc(Br)cc1Br`, > 100 µM (inactive); as for `CC(Sc1cccc[n+]1[O-])C(=O)Nc1cccc(S(=O)(=O)N2CCOCC2)c1` (stereo unspecified), 6.11 µM. The value for `CN1CCc2cc3c(c4c2[C@H]1[C@H](O)c1ccccc1-4)OCO3` was 35.4 µM.
